The test system of data set [1] is BALB/C mice. Briefly: Death rate of mice after TP treatment. It is filed as in vivo. Conditions: TP 1 mg/kg iv, pretreatment with mdr1a-siRNA. As to the method:
(§1) For TP plasma kinetic study and toxicological evaluation, mice were divided into four groups (n = 5 each) to collect blood and tissue samples: (1) normal + saline group; (2) 1.0 mg/kg TP + 15 nmol NC-siRNA group; (3) 1.0 mg/kg TP + 15 nmol mdr1a-siRNA group; (4) 1.0 mg/kg TP + 10 mg/kg tariquidar group. In order to avoid the complication caused by drug absorption or possible intestinal first-pass effect, TP and the inhibitor were intravenously administrated to mice. The siRNA group was intravenously injected with NC-siRNA or mdr1a-siRNA 2 days before TP dose. For TP + tariquidar group, the mice were received an intravenous tariquidar dose 20 min prior to the TP injection. Blood samples were collected at 2, 5, 10, 15, 30, 60 and 120 min after TP dosing. To assess the liver exposure of TP, liver tissue samples were collected from another set of mice at 5, 30, 60 and 120 min after dosing. Three TP groups were design for this experiment, including TP + NC-siRNA group, TP + mdr1a-siRNA group and TP + tariquidar group. The liver tissue samples were weighed and then homogenized in 10 volume (w:v) of ice-cold saline. The concentrations of TP in plasma and liver tissue were measured by a validated LC-MS/MS method. […]

For a further data set, the system named is CYP reductase KO mice. Further details: method as in PMID 21596114. Conditions: cited from earlier work.
A further data set relates to P-glycoprotein (P-gp). Further details: method as in PMID 24065861. Conditions: ATPase assay with rat mdr1 membrane; cited from earlier work.
Data set [2] deals with BALB/C mice. Briefly: Liver histopathology (HE staining) in mice. It is filed as in vivo. Conditions: TP 1 mg/kg iv, 24 h, TP = NC-siRNA group, tariquidar and mdr1a-1 siRNA = given before TP. The protocol: as §1, with “Three TP groups were design for this experiment, including TP + NC-siRNA group, TP + mdr1a-siRNA group and TP + tariquidar group. The liver tissue samples were weighed and then homogenized in 10 volume (w:v) of ice-cold saline.” left out
(§2) At 24 h of TP treatment, blood and liver tissue samples were collected from the mice in plasma kinetic study. Serum ALT and AST levels were determined with a CL8000 automated biochemical analyzer (Shimadzu, Japan) after serum was separated by centrifugation at 900 g for 10 min. […] The total protein concentration was quantified by the BCA assay. Bcl-2 and Bax proteins were measured by western blot.

In another data set the test system is Bcl-2/Bax. The data set is described as follows: Bcl-2 and Bax expression in mouse liver (western blot). It is filed as in vivo. The note with it: mice, TP 1 mg/kg iv, 24 h; tariquidar and mdr1a-siRNA = given before TP. As to the method:
For protein extraction, the cells or mice liver tissues were homogenized in RIPA buffer and then centrifuged at 14,000 g at 4 °C for 30 min. The supernatant was collected and the protein concentration was measured using BCA assay. The sample (50 μg protein/sample) was then loaded on 12% polyacrylamide gels and transferred to polyvinylidene difluoride membranes (Millipore, USA). After blocked by 3% bovine serum albumin, the membranes were incubated with primary antibodies and HRP-conjugated secondary antibody, and then detected using the enhanced chemiluminescence plus detection system (Molecular Device, Lmax, USA). The density of each band was quantified by using image analysis software (Science Lab 2005 Image Guage; Tokyo, Japan).
as §2, with “min. Liver tissue samples were divided into two parts, the first half was kept at −80 °C until MDA and SOD measurements using MDA and SOD assay kits (Nanjing Jiancheng Bioengineering Institute, Nanjing, China) according to the manufacturer’s instructions.” for “min.”
Background: Immunoblotting shows a protein as a band on a membrane.

A short description of data set [3]: Preliminary experiment: effect of NC-siRNA on pharmacokinetics of TP in mice. It is filed as in vivo. The note with it: mice, plasma; for AUC(0-t) / Cmax / MRT / Vd / clearance: 1 mg/kg. As to the method:
Effect of NC-siRNA on pharmacokinetic of TP
Mice were divided into two groups to collect blood samples (n=5 each): (1) 1.0 mg/kg TP + saline group; (2) 1.0 mg/kg TP + 15 nmol NC-siRNA group. The siRNA group was intravenously injected with NC-siRNA 2 days before TP dose. Blood samples were collected at 2, 5, 10, 15, 30, 60 and 120 min after TP dosing. The concentrations of TP in plasma and liver were measured by a validated LC-MS/MS method.

Details of data set [4]: method as in PMID 24632843. Conditions: bile duct-cannulated (BDC) rats, in 24 h; cited from earlier work.
Data set [5] deals with BALB/C mice. The data set is described as follows: Hepatic MDA content and SOD activity in mice. Conditions: 24 h; for Hepatic MDA level, fold increase: significance vs normal group. It is filed as in vivo. As to the method:
(§3) For TP plasma kinetic study and toxicological evaluation, mice were divided into four groups (n = 5 each) to collect blood and tissue samples: (1) normal + saline group; (2) 1.0 mg/kg TP + 15 nmol NC-siRNA group; (3) 1.0 mg/kg TP + 15 nmol mdr1a-siRNA group; (4) 1.0 mg/kg TP + 10 mg/kg tariquidar group. In order to avoid the complication caused by drug absorption or possible intestinal first-pass effect, TP and the inhibitor were intravenously administrated to mice. The siRNA group was intravenously injected with NC-siRNA or mdr1a-siRNA 2 days before TP dose. For TP + tariquidar group, the mice were received an intravenous tariquidar dose 20 min prior to the TP injection. Blood samples were collected at 2, 5, 10, 15, 30, 60 and 120 min after TP dosing. To assess the liver exposure of TP, liver tissue samples were collected from another set of mice at 5, 30, 60 and 120 min after dosing. Three TP groups were design for this experiment, including TP + NC-siRNA group, TP + mdr1a-siRNA group and TP + tariquidar group. The liver tissue samples were weighed and then homogenized in 10 volume (w:v) of ice-cold saline. The concentrations of TP in plasma and liver tissue were measured by a validated LC-MS/MS method. Prior to the above animal study, a preliminary experiment was performed to assess the possible differences in liver P-gp protein expression (Figure S1) and TP plasma kinetics between NC-siRNA treated mice and normal mice (with saline) (Figure S2 and supplemental Table 1). […] Therefore, NC-siRNA group was used as the control in the following animal study.
as §2

For data set [6], the system named is BALB/C mice. The data set is described as follows: Serum ALT and AST (TP-induced hepatotoxicity) in mice. It is filed as in vivo. Conditions: TP 1 mg/kg iv + NC-siRNA, 24 h after TP. As to the method: as §3
At 24 h of TP treatment, blood and liver tissue samples were collected from the mice in plasma kinetic study. Serum ALT and AST levels were determined with a CL8000 automated biochemical analyzer (Shimadzu, Japan) after serum was separated by centrifugation at 900 g for 10 min. Liver tissue samples were divided into two parts, the first half was kept at −80 °C until MDA and SOD measurements using MDA and SOD assay kits (Nanjing Jiancheng Bioengineering Institute, Nanjing, China) according to the manufacturer’s instructions. The other half was fixed with 4% paraformaldehyde solution and then dehydrated, embedded in paraffin and sectioned at a thickness of 5 μm. Four paraffin sections from each mouse were dewaxed, rehydrated and stained with hematoxylin-eosin (HE) for overall morphological evaluation. The total protein concentration was quantified by the BCA assay. Bcl-2 and Bax proteins were measured by western blot.

Setting [7] is: C57, mouse, iv, TP 1.0 mg/kg + saline.
Where [8] appears, read: C57, mouse, iv, TP 1.0 mg/kg + 15 nmol NC-siRNA iv 2 days before.

Data on one molecule can be found in paper PMC4488747, “Inhibition of P-glycoprotein Gene Expression and Function Enhances Triptolide-induced Hepatotoxicity in Mice” (Scientific Reports, 2015).

As usually defined, the half-life is the time in which the quantity being followed falls by half.

As to `CC(C)[C@]12O[C@H]1[C@@H]1O[C@]13[C@]1(O[C@H]1C[C@H]1C4=C(CC[C@@]13C)C(=O)OC4)[C@@H]2O` [TP, Triptolide], the “Death rate within 30 h of TP treatment” value with BALB/C mice [1] is on record as “about 60%”. Further, the “Increase fold of TP hepatic exposure” value in the data set on CYP reductase KO mice (at 120 min) is listed as “about 2 fold”. For the same molecule, in the data set with CYP reductase KO mice, the “Increase in AST level” value is “about 2 fold”. In addition, the P-gp substrate identification entry in the data set on P-glycoprotein (P-gp) is “substrate”. In addition, the “Histopathological changes in liver (HE)” value in the data set with BALB/C mice [2] was “hepatocellular hydropic degeneration and vacuolization”. In addition, the “Bcl-2/Bax ratio in liver” value in the data set on Bcl-2/Bax is listed as “significantly reduced”. In addition, in [3] (setting [7]), the half-life is 12.6 ± 3 min, the AUC(0-t) was determined as 104 ± 13.4 ng·h/mL, the Cmax came out at 351 ± 10.9 ng/mL and the MRT was found to be 13.8 ± 1.8 min. Further, in [3] (setting [7]), the Vd was found to be 3 ± 0.3 L/kg and the clearance is 165 mL/min/kg. In [3] (setting [8]), the AUC(0-t) is 99.1 ± 11.7 ng·h/mL, the Cmax is 330 ± 18.2 ng/mL, the MRT amounted to 15.6 ± 2.4 min and the Vd was found to be 3.1 ± 0.6 L/kg. Also, the clearance in data set [3] (setting [8]) was 173 mL/min/kg. In data set [3] (TP 1.0 mg/kg + 15 nmol NC-siRNA iv 2 days before), the t1/2 came to 12.6 ± 3.6 min. Also, the “TP dose excreted via bile” value in data set [4] was around 39%. The “Hepatic MDA level, fold increase” value in the data set with BALB/C mice [5] (TP 1 mg/kg iv + mdr1a-siRNA) is 1.6 fold. In the data set with BALB/C mice [5] (TP 1 mg/kg iv + tariquidar 10 mg/kg), the “Hepatic MDA level, fold increase” value turned out to be 1.3 fold. The “Hepatic SOD activity” value in the data set with BALB/C mice [5] (all three TP groups, significant only with tariquidar or mdr1a-siRNA) is “reduction”. In addition, in the data set on BALB/C mice [6], the “Serum ALT level, folds of the normal group” value worked out at 4.2 folds and the “Serum AST level, folds of the normal group” value is 5.4 folds.
